Reference: paper PMC6222706, “Evaluation of the Antioxidant and Neuroprotectant Activities of New Asymmetrical 1,3-Diketones” (Molecules : A Journal of Synthetic Chemistry and Natural …, 2018)
Values after ≈ are worked out from the molar mass of the structure shown.

What was measured:
[1] = FRAP (Ferric Reducing Antioxidant Power) assay; assay type: biochemical; settings: for FRAP-TEAC100: Trolox Equivalent Antioxidant Capacity vs 100 µM solution of the substance, from FRAP assay; for FRAP Assay (%) at 100 µM / FRAP Assay (%) at 200 µM: 30 min, 593 nm
Experimental: The assay was carried out according to the method of Benzie et al. with slight modifications, in a 96-well microplate. FRAP reagent was prepared by mixing 10 mL of 300 mM acetate buffer with 1 mL of 10 mM 2,4,6-tripyridyl-S-triazine (TPTZ) in HCl 40 mM and 1mL of FeCl3·6H2O 20 mM. Firstly, 190 µL of the FRAP reagent were added to all wells of the 96-well plate, followed by the addition to the well of 10 µL of the test compounds dissolved in Ethanol to reach the final concentrations assayed (0, 5, 10, 20, 50, 100, 150, 200 µM). After 30 min incubation in the dark, the absorbance was read at 593 nm. Trolox was used as assay control. Three different assays were carried out by quadruplicate for each compound.

[2] = ABTS radical scavenging assay; assay type: biochemical; settings: for IC50: 30 min incubation, EtOH, absorbance at 734 nm; for ABTS-TEAC100: Trolox Equivalent Antioxidant Capacity vs 100 µM solution of the substance, from ABTS assay
Experimental: ABTS^+ radical was produced by reacting 2,2′-azino-bis-3-ethylbenzthiazoline-6-sulphonic acid (ABTS) 7 mM with K2S2O8 2.45 mM, both reactants dissolved in water, and at the volume ratio of 1:1. The mixture was stored in the dark at room temperature for 16 h. The ABTS^+ solution was diluted to give an absorbance of 0.750 ± 0.025 at 734 nm in EtOH. All the compounds tested were dissolved in EtOH. 150 µL of each compound solution was added to the wells of the 96-well plate, followed by the addition of 50 µL of the ABTS^+ radical solution. Final compound concentrations tested were 0, 5, 10, 20, 50, 100, 150, 200 µM. The absorbance change at 734 nm was recorded after 30 min incubation in the dark, and the percentage of radical scavenging was calculated for each concentration relative to a blank containing no scavenger. The degree of decolorization was calculated as the percentage reduction of absorbance. The ABTS^+ radical scavenging activity was calculated as follows: Percentage ABTS^+ radical scavenging activity = {1 − [As/Ac]} × 100(1) where As is the absorbance of the ABTS^+ radical solution containing samples and Ac the absorbance of the control solution without antioxidant. The percentages of ABTS^+ radical reduced were plotted against compound concentration. Trolox was used as a reference antioxidant. All the assays were carried out three times by quadruplicate for each compound.

[3] = system: SH-SY5Y cells; test: LDH release assay in H2O2-treated SH-SY5Y cells; assay type: cell-based, human; settings: compound 5-50 µM for 24 h, then 200 µM H2O2 for 24 h
Experimental: Additionally, the protection effect of 6b and 7b on cell death induced by 200 µM H2O2 was determined by measuring the lactate dehydrogenase (LDH) release in cell culture medium.
SH-SY5Y 96-well plates at a density of 5 × 10^3 cells/well and grown in the incubator for 24 h. Cells were pretreated for 24 h with different compound concentrations (5, 10, 20, 30, 40, 50 µM) and then exposed to 200 µM H2O2 for 24 h. Then, the supernatant was used in the LDH assay and the absorbance measured at 490nm in a Varioskan microplate reader after 30 min, according to the manufacturer’s instructions (LDH Cytotoxicity Assay Kit, Pierce^TM, Thermo Fisher Scientific, Vantaa, Finland). LDH leakage was calculated as the percentage of the control group.

[4] = system: SH-SY5Y cells; test: Intracellular ROS levels (DCFH2-DA) in SH-SY5Y cells under H2O2; assay type: cell-based, human
Experimental: Oxidative stress increases ROS levels, which may cause cell damage and death. Therefore, ROS production caused by H2O2 was evaluated in cells pretreated with or without derivatives 6b and 7b. In these studies, DFCH-DA method was used to measure by fluorescence the ROS intracellular levels, under two different compound treatment regimens. […] From both experiments, it could be concluded that 6b and 7b reduce intracellular ROS, and that longer treatment period seems to be needed to achieve a better ROS reduction.
Intracellular ROS levels were determined using dichlorofluorescein diacetate (DCFH2-DA) according to Wang et al.. DCFH2-DA is cleaved by intracellular esterases and oxidized by ROS to form the fluorescent compound DCF, which measure represents the ROS level. So, 3 × 10^3 SH-SY5Y cells were seeded in 96 well plates and after 24 h, treated with the test compound for an additional 24 h. […] After the incubation period, cells were washed twice with Hanks buffer and loaded with 20 µM DCFH2-DA (in FBS-free culture medium) for 40 min in dark at 37 °C in a CO2 incubator. At the end of the dye incubation period, they were washed twice with Hanks buffer to remove the extracellular DCFH2-DA. Fluorescence was measured with a Varioskan microplate reader at 485 nm excitation and 535 nm emission wavelength. Results are expressed as the percentage of fluorescent increase compared with that of the control. All the experiments were performed at least three times by quadruplicate for each compound concentration.

[5] = Kinetic solubility by UV spectrometry in 10 mM PBS; assay type: physicochemical; settings: 10 mM phosphate buffered saline, aqueous buffer, kinetic from dmso stock
Experimental: Among the most important physicochemical parameters in drug-discovery, solubility and chemical stability in aqueous media are the determinants for non-toxic and brain-permeable drug-like compounds with good bioavailability. So, compounds with good aqueous solubility are the best candidates for drug-discovery progression. […] The assays were performed at room temperature, in 10 mM Phosphate Buffered Saline (PBS) from compound stocks in DMSO at 20 mM concentration.
A modified protocol was used from that described by Hoelke et al. for the determination of the kinetic solubility from DMSO compound solutions. A compound calibration curve (compound concentration vs. UV absorption) was prepared on a 48 well plate for each compound with concentrations in the range of 10 µM to […]. Each compound dilution was carried out by pipetting defined volumes of a 20 mM stock compound solution in DMSO into the wells and adding PBS 10 mM to reach a final volume of 500 µL/well. The final amount of DMSO per well was 2%. For the lower compound concentrations, an additional volume of DMSO was added into each well to reach the 2% of DMSO. Then, 200 µL of each dilution was transferred to a new 96 well plate for the measurement of the UV-spectra. One well in each row was left without compound as a blank and its UV absorbance was used as an offset correction. The experiments were carried out by duplicate.
In parallel compound saturation solutions were obtained and filtered from 20 mM compound stock in DMSO. So, 10 µL of 20 mM stock solution were dispensed to 190 µL of PBS 10 mM. The solutions were mixed, shaken in a microplate shaker for two hours, and then 160 µL of each solution were filtered and transferred to a new well plate for UV absorption measure. The compound stability in PBS 10 mM was determined at 24, 48 and 72 h with solutions prepared as those for the compound calibration curve.
Measurement of the UV-spectra was performed using a Varioskan microplate reader and spectra were taken in the range of 270–600 nm. Spectral bandwidth was set to 5 nm and the data pint interval was 10 nm. […]

[6] = 6 h compound treatment followed by 2 h 500 µM H2O2
[7] = 24 h compound treatment prior to 400 µM H2O2 for 4 h

SMILES	FRAP-TEAC100 [1]	FRAP Assay (%) at 100 µM [1] [%]	FRAP Assay (%) at 200 µM [1] [%]	IC50 [2] [µM]	ABTS-TEAC100 [2]	LDH leakage [3]	Intracellular ROS level [4, 6]	Intracellular ROS level [4, 7]	solubility at 2 h [5] [µg/mL]
O=C(/C=C(O)/C=C/c1ccc(O)c(F)c1F)C(F)(F)F [Compound 7b, (3Z,5E)-6-(2,3-Difluoro-4-hydroxyphenyl)-1,1,1-trifluoro-4-hydroxyhexa-3,5-dien-2-one]	0.16	8.8	15.3	70.9 ± 5.8	0.62	reduced the LDH leakage	significant ROS level decrease	significant ROS level reduction	298 ± 7 (≈ 1010 µM)
O=C(/C=C(O)/C=C/c1cc(F)c(O)cc1F)C(F)(F)F [Compound 6b, (3Z,5E)-6-(2,5-difluoro-4-hydroxyphenyl)-1,1,1-trifluoro-4-hydroxyhexa-3,5-dien-2-one]	0.15	6.7	11.3	116 ± 11	0.67	reduced the LDH leakage	significant ROS level decrease	significant ROS level reduction	281 ± 9 (≈ 955 µM)
